Measured values: patent publication US12029739B2, “SHP2 inhibitor and use thereof” (KANAPH THERAPEUTICS INC., priority 2021, dated 2024)

Assays:
SHP2 (full length) = target: T1, SHP2 (full length) (Homo sapiens, UniProt Q06124); assay: Phosphatase assay (PTPase assay) with DiFMUP substrate; format: biochemical; details: SHP2 activated with SHP2 activating peptide; DiFMUP 80 μM, 2 hours; fluorescence; read-out: IC50 (PTPase aS say)
T1 construct: SHP2 (full length, diluted to 100 pM final concentration in reaction buffer, BPS bioscience, US); purchased BPS bioscience, US
T1 sequence (Q06124 1-593): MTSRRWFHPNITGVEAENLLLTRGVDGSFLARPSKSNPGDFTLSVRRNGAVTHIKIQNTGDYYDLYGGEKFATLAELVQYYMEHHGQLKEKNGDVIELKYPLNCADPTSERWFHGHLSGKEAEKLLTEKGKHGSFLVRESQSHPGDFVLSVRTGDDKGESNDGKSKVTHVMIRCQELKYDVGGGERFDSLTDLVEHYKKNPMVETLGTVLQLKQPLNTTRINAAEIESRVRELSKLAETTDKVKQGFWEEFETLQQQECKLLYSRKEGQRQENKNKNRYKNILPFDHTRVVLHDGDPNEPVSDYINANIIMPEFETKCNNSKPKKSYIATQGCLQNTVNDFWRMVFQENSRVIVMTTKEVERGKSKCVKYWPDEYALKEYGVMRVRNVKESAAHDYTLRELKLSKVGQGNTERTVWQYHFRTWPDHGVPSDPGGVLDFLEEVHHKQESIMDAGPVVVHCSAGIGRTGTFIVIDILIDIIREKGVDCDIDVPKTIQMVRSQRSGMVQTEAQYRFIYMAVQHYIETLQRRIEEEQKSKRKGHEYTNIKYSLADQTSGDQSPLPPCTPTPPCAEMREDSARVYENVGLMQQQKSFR

[1] = test system: phospho-ERK in MIA PaCa2 or H358 cells; assay: Phospho-ERK assay (AlphaLisa); format: cell-based; details: 1.5 h, MIA PaCa2 or H358 cells, compound incubated 1.5 hours; read-out: IC50 (p-ERK)

In the case of `N[C@@H]1c2cccnc2CC12CCN(c1cnc(Sc3ccc4ncn(CCCO)c(=O)c4c3Cl)cn1)CC2` [Example 109], the IC50 (SHP2 (full length)) is reported as less than 0.003 µM and the IC50 [1] is reported as less than 0.045 µM.
Molecule `C[C@@H]1OCC2(CCN(c3cnc(Sc4ccc5nc(OC6CCOC6)n(C)c5c4Cl)cn3)CC2)[C@@H]1N` (stereo partly drawn) [Example 129, (3S,4S)-8-(5-((7-chloro-1-methyl-2-((tetrahydrofuran-3-yl)oxy)-1H-benzo[d]imidazol-6-yl)thio)pyrazin-2-yl)-3-methyl-2-oxa-8-azaspiro[4.5]decan-4-amine] has an IC50 (SHP2 (full length)) of less than 0.003 µM and an IC50 [1] of less than 0.045 µM.
`COCCn1cnc2ccc(Sc3cnc(N4CCC5(CC4)Cc4nc(Cl)sc4[C@H]5N)cn3)c(Cl)c2c1=O` [Example 161, 6-[5-[(6S)-6-amino-2-chloro-spiro[4,6-dihydrocyclopenta[d]thiazole-5,4′-piperidin]-1′-yl]pyrazin-2-yl]sulfanyl-5-chloro-3-(2-methoxyethyl)quinazolin-4-one] was tested, and the IC50 (SHP2 (full length)) was less than 0.003 µM and the IC50 [1] was less than 0.045 µM.
With `N[C@@H]1c2scnc2CC12CCN(c1cnc(Sc3ccc4ncn(CC5CCOCC5)c(=O)c4c3Cl)cn1)CC2` [Example 149] the IC50 (SHP2 (full length)) was less than 0.003 µM and the IC50 [1] was less than 0.045 µM.
`C[C@@H]1OCC2(CCN(c3cnc(Sc4ccc5ncn(CC6CCCN6C)c(=O)c5c4Cl)cn3)CC2)[C@@H]1N` (stereo partly drawn) [Example 74, 6-((5-((3S,4S)-4-amino-3-methyl-2-oxa-8-azaspiro[4.5]decan-8-yl)pyrazin-2-yl)thio)-5-chloro-3-((l-methylpyrrolidin-2-yl)methyl)quinazolin-4(3H)-one] showed an IC50 (SHP2 (full length)) of 0.003 to 0.1 µM and an IC50 [1] of 0.045 to 1.5 µM.
`C[C@@H]1OCC2(CCN(c3cnc(Sc4ccc5ncn(Cc6nccs6)c(=O)c5c4Cl)cn3)CC2)[C@@H]1N` [Example 35, 6-((5-((3S,4S)-4-amino-3-methyl-2-oxa-8-azaspiro[4.5]decan-8-yl)pyrazin-2-yl)thio)-5-chloro-3-(thiazol-2-ylmethyl)quinazolin-4(3H)-one] showed an IC50 (SHP2 (full length)) of less than 0.003 µM and an IC50 [1] of less than 0.045 µM.
`C[C@@H]1OCC2(CCN(c3cnc(Sc4ccc5ncn(Cc6cccnc6N)c(=O)c5c4Cl)cn3)CC2)[C@@H]1N` [Example 52, 6-((5-((3S,4S)-4-amino-3-methyl-2-oxa-8-azaspiro[4.5]decan-8-yl)pyrazin-2-yl)thio)-3-((2-aminopyridin-3-yl)methyl)-5-chloroquinazolin-4(3H)-one] gave an IC50 (SHP2 (full length)) of 0.003 to 0.1 µM and an IC50 [1] of 0.045 to 1.5 µM.
For `COCCn1cnc2ccc(Sc3cnc(N4CCC5(CC4)CO[C@@H](C)[C@H]5N)cn3)c(F)c2c1=O` [Example 156], the IC50 (SHP2 (full length)) was 0.003 to 0.1 µM and the IC50 [1] was less than 0.045 µM.
With `C[C@@H]1OCC2(CCN(c3cnc(Sc4ccc5ncn(CCOC(F)(F)F)c(=O)c5c4Cl)cn3)CC2)[C@@H]1N` [Example 96, 6-((5-((3S,4S)-4-amino-3-methyl-2-oxa-8-azaspiro[4.5]decan-8-yl)pyrazin-2-yl)thio)-5-chloro-3-(2-(trifluoromethoxy)ethyl)quinazolin-4(3H)-one] the IC50 (SHP2 (full length)) was 0.003 to 0.1 µM and the IC50 [1] was less than 0.045 µM.
Work on `C[C@@H]1OCC2(CCN(c3cnc(Sc4ccc5ncn(CCS(C)(=O)=O)c(=O)c5c4Cl)cn3)CC2)[C@@H]1N` [Example 82, 6-((5-((3S,4S)-4-amino-3-methyl-2-oxa-8-azaspiro[4.5]decan-8-yl)pyrazin-2-yl)thio)-5-chloro-3-(2-(methylsulfonyl)ethyl)quinazolin-4(3H)-one] yielded an IC50 (SHP2 (full length)) of less than 0.003 µM and an IC50 [1] of less than 0.045 µM.
Work on `COCCOc1nc2ccc(Sc3cnc(N4CCC5(CC4)CO[C@@H](C)[C@H]5N)cn3)c(Cl)c2[nH]1` [Example 127] yielded an IC50 (SHP2 (full length)) of less than 0.003 µM and an IC50 [1] of less than 0.045 µM.
In the case of `Cn1c(N2CCN(C[C@@H](N)c3ccccc3)CC2)nc(N)c(Sc2cccc(Cl)c2Cl)c1=O` [Example 191, (S)-6-amino-2-(4-(2-amino-2-phenylethyl)piperazin-1-yl)-5-((2,3-dichlorophenyl)thio)-3-methylpyrimidin-4(3H)-one], the IC50 (SHP2 (full length)) is reported as greater than 0.1 µM and the IC50 [1] is reported as greater than 1.5 µM.
For `C[C@@H]1OCC2(CCN(c3cnc(Sc4ccc5ncn(Cc6cccnc6)c(=O)c5c4Cl)cn3)CC2)[C@@H]1N` [Example 20, 6-((5-((3S,4S)-4-amino-3-methyl-2-oxa-8-azospiro[4.5]decan-8-yl)pyrazin-2-yl)thio)-5-chloro-3-(pyridin-3-ylmethyl)quinazolin-4H-one], the IC50 (SHP2 (full length)) was less than 0.003 µM and the IC50 [1] was less than 0.045 µM.
With `C[C@@H]1OCC2(CCN(c3cnc(Sc4ccc5ncn(CC(O)CF)c(=O)c5c4Cl)cn3)CC2)[C@@H]1N` (stereo partly drawn) [Example 76, 6-((5-((3S,4S)-4-amino-3-methyl-2-oxa-8-azaspiro[4.5]decan-8-yl)pyrazin-2-yl)thio)-5-chloro-3-(3-fluoro-2-hydroxypropyl)quinazolin-4(3H)-one] the IC50 (SHP2 (full length)) was 0.003 to 0.1 µM and the IC50 [1] was 0.045 to 1.5 µM.
`CC1(N)CCN(c2cnc(Sc3ccc4ncn(-c5ccccc5)c(=O)c4c3Cl)cn2)CC1` [Example 28, 6-((5-(4-amino-4-methylpiperidin-1-yl)pyrazin-2-yl)thio)-5-chloro-3-phenylquinazolin-4(3H)-one] showed an IC50 (SHP2 (full length)) of 0.003 to 0.1 µM and an IC50 [1] of 0.045 to 1.5 µM.
Work on `C[C@@H]1OCC2(CCN(c3cnc(Sc4ccc5ncn(Cc6cccc(O)c6)c(=O)c5c4Cl)cn3)CC2)[C@@H]1N` [Example 66, 6-((5-((3S,4S)-4-amino-3-methyl-2-oxa-8-azaspiro[4.5]decan-8-yl)pyrazin-2-yl)thio)-5-chloro-3-(3-hydroxybenzyl)quinazolin-4(3H)-one] yielded an IC50 (SHP2 (full length)) of less than 0.003 µM and an IC50 [1] of less than 0.045 µM.
`N[C@@H]1c2cccnc2CC12CCN(c1cnc(Sc3ccc4ncn(Cc5ccncn5)c(=O)c4c3Cl)cn1)CC2` [Example 141, (S)-6-((5-(5-amino-5,7-dihydrospiro[yclopenta[b]pyridine-6,4′-piperidin]-1′-yl)pyrazin-2-yl)thio)-5-chloro-3-(pyrimidin-4-ylmethyl)quinazolin-4(3H)-one] was tested, and the IC50 (SHP2 (full length)) was less than 0.003 µM and the IC50 [1] was less than 0.045 µM.
With `C[C@@H]1OCC2(CCN(c3cnc(Sc4ccc5ncn(CCN6CCCC6)c(=O)c5c4Cl)cn3)CC2)[C@@H]1N` [Example 89] the IC50 (SHP2 (full length)) was 0.003 to 0.1 µM and the IC50 [1] was 0.045 to 1.5 µM.
With `C[C@@H]1OCC2(CCN(c3cnc(Sc4ccc5nc[nH]c(=O)c5c4Cl)cn3)CC2)[C@@H]1N` [Example 5, 6-((5-((3S,4S)-4-amino-3-methyl-2-oxa-8-azaspiro[4.5]decan-8-yl)pyrazin-2-yl)thio)-5-chloroquinazolin-4(3H)-one] the IC50 (SHP2 (full length)) was 0.003 to 0.1 µM and the IC50 [1] was 0.045 to 1.5 µM.
`C[C@@H]1OCC2(CCN(c3cnc(Sc4ccc5ncn(Cc6ccncn6)c(=O)c5c4Cl)cn3)CC2)[C@@H]1N` [Example 45, 6-((5-((3S,4S)-4-amino-3-methyl-2-oxa-8-azaspiro[4.5]decan-8-yl)pyrazin-2-yl)thio)-5-chloro-3-(pyrimidin-4-ylmethyl)quinazolin-4(3H)-one] gave an IC50 (SHP2 (full length)) of less than 0.003 µM and an IC50 [1] of less than 0.045 µM.
In the case of `C[C@@H]1OCC2(CCN(c3cnc(Sc4ccc5ncn(Cc6cnccn6)c(=O)c5c4Cl)cn3)CC2)[C@@H]1N` [Example 44, 6-((5-((3S,4S)-4-amino-3-methyl-2-oxa-8-azaspiro[4.5]decan-8-yl)pyrazin-2-yl)thio)-5-chloro-3-(pyrazin-2-ylmethyl)quinazolin-4(3H)-one], the IC50 (SHP2 (full length)) is reported as less than 0.003 µM and the IC50 [1] is reported as less than 0.045 µM.
With `COc1cccc(Cn2cnc3ccc(Sc4cnc(N5CCC6(CC5)CO[C@@H](C)[C@H]6N)cn4)c(Cl)c3c2=O)c1` [Example 36, 6-((5-((3S,4S)-4-amino-3-methyl-2-oxa-8-azaspiro[4.5]decan-8-yl)pyrazin-2-yl)thio)-5-chloro-3-(3-methoxybenzyl)quinazolin-4(3H)-one] the IC50 (SHP2 (full length)) was less than 0.003 µM and the IC50 [1] was less than 0.045 µM.
